The target in one test is T1, human V1aR (Homo sapiens, UniProt P37288).
T1 construct: expressed in transfected cells
Put plainly: FLIPR calcium agonist assay in HEK-flpin cells expressing the vasopressin V1a receptor. It counts as cell-based. The protocol:
Efficacy (% MPE) is also determined as the percentage of maximal possible effect. This agonist assay utilizes cells from a stable cell line (HEK-flpin) expressing the vasopressin V1a receptor. Intracellular calcium increase in response to agonist is measured through real-time fluorescence of an intracellular calcium-sensitive dye. Cells are exposed to varying concentrations of test agonist compounds whereupon release of intracellular calcium is measured to determine the agonist potency and efficacy.
The cell line stably expresses the lacZ-Zeocin™ fusion gene and is designed for use with the Flp-In™ expression vector containing the gene of interest and the Flp recombinase expression plasmid, pOG44. The cell line contains a single integrated Flp Recombination Target (FRT) site from pFRT/lacZeo or pFRT/lacZeo2. To generate the HEK-flpin cell line stably expressing the human V1aR, the cells were co-transfected with the Flp-In™ expression vector containing the gene of interest (pcDNA5/FRT-hV1aR) and the Flp recombinase expression plasmid pOG44. Flp recombinase mediates insertion of the Flp-In™ expression vector into the genome at the integrated FRT site through site-specific DNA recombination. Stable cell lines expressing the hV1aR from the Flp-In™ expression vector can be generated by selection using hygromycin B. See Life Technologies/Invitrogen manual, Growth and Maintenance of Flp-In™ Cell Lines, Version E, published Feb.
Efficacy of this compound was set to be 100%. A stock solution of 5 mM was made up in DMSO and stored at −20° C.
HEK-flpin-hV1aR, cmcqV1aR, dV1aR and pV1aR cells were maintained in DMEM containing 10% (v/v) FBS-HI, 4 mM GlutaMAX™-I, 25 μg/mL Hygromycin B at 37° C. under 5% CO2 in a humidified atmosphere. […]
The cell plates were transferred to FLIPR Tetra, along with a 384 well V-bottom plate pre-loaded with half-log concentrations of test compounds at 10× final test concentrations. […] The agonist-induced fluorescence signal was then measured for 180 s with initial 120 readings at 1-second intervals followed by 20 readings at 3-second intervals. […]

The conditions of test [1]: HRS1 patients; cited from earlier work.

*1 amine or outer side, *2 acyl side, *3 side chain or, on linkers, in order; H or OH if unused. Where a SMILES comes first, the peptide text is derived from it. Bridges are numbered along the chain shown (N, C = ends). Roman numbers before positions name the chains, in order. [ ]: non-standard residue; d: D form. The star is where a group is joined. d(isoGln) = NC(=O)[C@@H](CCC(=O)[*:2])N[*:1]; isoGln = NC(=O)[C@H](CCC(=O)[*:2])N[*:1]; d(εLys) = N[C@H](CCCCN[*:1])C(=O)[*:2]; Aad = N[C@@H](CCCC(=O)O)C(=O)O; Cit = NC(=O)NCCC[C@H](N)C(=O)O; Dab = NCC[C@H](N)C(=O)O; PhAc = O=C(Cc1ccccc1)*

As usually defined, the EC50 is the concentration needed to bring the measured effect to its halfway point.

T1 sequence (P37288 whole entry): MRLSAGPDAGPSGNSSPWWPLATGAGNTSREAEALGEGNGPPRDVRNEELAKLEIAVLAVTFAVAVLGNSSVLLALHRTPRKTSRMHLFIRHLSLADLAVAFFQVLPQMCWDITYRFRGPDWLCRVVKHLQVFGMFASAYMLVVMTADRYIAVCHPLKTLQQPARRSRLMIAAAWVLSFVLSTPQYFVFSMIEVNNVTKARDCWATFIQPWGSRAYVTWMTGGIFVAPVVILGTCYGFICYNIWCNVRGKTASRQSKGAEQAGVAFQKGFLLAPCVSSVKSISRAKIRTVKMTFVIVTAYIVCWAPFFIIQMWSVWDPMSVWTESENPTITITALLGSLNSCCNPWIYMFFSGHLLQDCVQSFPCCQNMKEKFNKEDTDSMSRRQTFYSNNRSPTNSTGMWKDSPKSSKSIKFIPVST

`CC[C@H](C)[C@@H]1NC(=O)[C@H](Cc2ccccc2)NC(=O)[C@@H](N)CSSC[C@@H](C(=O)N2CCC[C@H]2C(=O)N[C@@H](CCNC(=O)[C@H](N)CCCCNC(=O)CC[C@@H](NC(=O)[C@H](CCCNC(=N)N)NC(=O)[C@@H]2CCCN2C(=O)[C@H](CCCNC(N)=O)NC(=O)[C@H](CC(N)=O)NC(=O)[C@H](CCC(N)=O)NC(=O)[C@H](Cc2ccccc2)NC(=O)[C@@H](Cc2ccc(OC)cc2)NC(=O)Cc2ccccc2)C(N)=O)C(=O)NCC(N)=O)NC(=O)[C@H](CC(N)=O)NC(=O)[C@H](CCC(N)=O)NC1=O` [Compound 55] (I: H-CFIQNCP[Dab]G-NH2 / II: PhAc-[dY](Me)FQN[Cit]PR[d(isoGln)][d(εLys)]; disulfide I:1-I:6; amide I:8-II:C): the EC50 on human V1aR is 1.7 nM.

In the case of `CC[C@H](C)[C@@H]1NC(=O)[C@H](Cc2ccccc2)NC(=O)[C@@H](N)CSSC[C@@H](C(=O)N2CCC[C@H]2C(=O)N[C@@H](CCNC(=O)[C@H](N)CCCCNC(=O)CC[C@H](NC(=O)[C@H](CCCNC(=N)N)NC(=O)[C@@H]2CCCN2C(=O)[C@H](CCN)NC(=O)[C@H](CC(N)=O)NC(=O)[C@H](CCC(N)=O)NC(=O)[C@H](Cc2ccccc2)NC(=O)[C@@H](Cc2ccc(OC)cc2)NC(=O)Cc2ccccc2)C(N)=O)C(=O)NCC(N)=O)NC(=O)[C@H](CC(N)=O)NC(=O)[C@H](CC(N)=O)NC1=O` [Compound 59] (I: H-CFINNCP[Dab]G-NH2 / II: PhAc-[dY](Me)FQN[Dab]PR[isoGln][d(εLys)]; disulfide I:1-I:6; amide I:8-II:C), on human V1aR, the EC50 is 1.7 nM.

As to `CC[C@H](C)[C@@H]1NC(=O)[C@H](Cc2ccccc2)NC(=O)[C@@H](N)CSSC[C@@H](C(=O)N2CCC[C@H]2C(=O)N[C@@H](CCNC(=O)[C@H](N)CCCCNC(=O)CC[C@H](NC(=O)[C@H](CCCNC(=N)N)NC(=O)[C@@H]2CCCN2C(=O)[C@H](C)NC(=O)[C@H](CC(N)=O)NC(=O)[C@H](CCC(N)=O)NC(=O)[C@H](Cc2ccccc2)NC(=O)[C@@H](Cc2ccc(OC)cc2)NC(=O)Cc2ccccc2)C(N)=O)C(=O)NCC(N)=O)NC(=O)[C@H](CC(N)=O)NC(=O)[C@H](CCCC(N)=O)NC1=O` [Compound 62] (I: H-CFI[Aad](NH2)NCP[Dab]G-NH2 / II: PhAc-[dY](Me)FQNAPR[isoGln][d(εLys)]; disulfide I:1-I:6; amide I:8-II:C), at human V1aR (HEK-flpin-hV1aR cells, AVP efficacy set to 100%), the “Efficacy Avg. (% MPE, as compared to AVP)” value is recorded as 31%.

With `NCCCC[C@H](NC(=O)[C@@H]1CCCN1C(=O)[C@@H]1CSSC[C@H](NC(=O)CNC(=O)CNC(=O)CN)C(=O)N[C@@H](Cc2ccc(O)cc2)C(=O)N[C@@H](Cc2ccccc2)C(=O)N[C@@H](CCC(N)=O)C(=O)N[C@@H](CC(N)=O)C(=O)N1)C(=O)NCC(N)=O` [Terlipressin, terlipressin] (H-GGGCYFQNCPKG-NH2; disulfide 4-9), in test [1], the “patients in whom renal failure is reversed” value was 30-40%.

Values taken from US9644000B2, “V1a receptor agonists” (Ferring B.V., priority 2012, dated 2017).
